Experimental data: ChEMBL document CHEMBL1147537, “N-Benzoyl amino acids as ICAM/LFA-1 inhibitors. Part 2: structure-activity relationship of the benzoyl moiety” (Bioorg Med Chem Lett, 2004)
Non-standard residues stand in square brackets, D forms with d. Residues, ends and D or L forms follow the SMILES beside them. ξ: configuration not given here. ξPip = O=C(O)C1CCCCN1

Target: Intercellular adhesion molecule (ICAM-1), Integrin alpha-L/beta-2 (Homo sapiens, UniProt P05107+P05362+P20701)
Experiment: Inhibitory activity against association of LFA-1 with intercellular adhesion molecule 1
Assay type: protein-complex assay

Intercellular adhesion molecule (ICAM-1), Integrin alpha-L/beta-2, sequence (P20701 whole entry): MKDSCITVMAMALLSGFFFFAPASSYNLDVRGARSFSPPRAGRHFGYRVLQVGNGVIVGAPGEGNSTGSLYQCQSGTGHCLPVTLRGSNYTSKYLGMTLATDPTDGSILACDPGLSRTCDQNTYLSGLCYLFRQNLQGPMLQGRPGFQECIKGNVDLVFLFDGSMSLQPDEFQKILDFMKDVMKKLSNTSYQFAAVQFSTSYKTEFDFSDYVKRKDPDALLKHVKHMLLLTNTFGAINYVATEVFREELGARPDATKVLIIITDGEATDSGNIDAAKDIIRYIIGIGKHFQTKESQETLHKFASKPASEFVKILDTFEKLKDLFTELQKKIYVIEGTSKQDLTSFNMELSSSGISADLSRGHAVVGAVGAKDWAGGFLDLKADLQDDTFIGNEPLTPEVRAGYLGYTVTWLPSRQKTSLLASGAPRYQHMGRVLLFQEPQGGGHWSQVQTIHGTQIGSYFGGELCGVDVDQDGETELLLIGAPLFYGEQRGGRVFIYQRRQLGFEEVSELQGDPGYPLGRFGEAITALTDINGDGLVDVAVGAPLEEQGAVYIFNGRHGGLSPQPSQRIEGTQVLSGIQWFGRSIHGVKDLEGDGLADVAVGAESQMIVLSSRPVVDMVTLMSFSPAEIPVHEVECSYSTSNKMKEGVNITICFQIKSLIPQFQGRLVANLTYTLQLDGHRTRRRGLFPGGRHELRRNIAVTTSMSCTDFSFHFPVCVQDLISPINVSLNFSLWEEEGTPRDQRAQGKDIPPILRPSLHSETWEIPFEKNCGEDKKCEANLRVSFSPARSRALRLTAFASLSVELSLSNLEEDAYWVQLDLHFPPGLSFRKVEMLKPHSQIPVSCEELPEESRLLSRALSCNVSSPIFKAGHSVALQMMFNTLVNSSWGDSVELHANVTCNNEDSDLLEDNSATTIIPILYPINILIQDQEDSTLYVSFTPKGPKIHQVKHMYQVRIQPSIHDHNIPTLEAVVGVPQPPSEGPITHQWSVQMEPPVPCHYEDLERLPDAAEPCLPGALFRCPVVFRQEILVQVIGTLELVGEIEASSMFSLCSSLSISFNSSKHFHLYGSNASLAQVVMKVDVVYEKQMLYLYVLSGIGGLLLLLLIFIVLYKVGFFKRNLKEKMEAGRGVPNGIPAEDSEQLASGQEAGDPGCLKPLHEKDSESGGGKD
Intercellular adhesion molecule (ICAM-1), Integrin alpha-L/beta-2, sequence (P05362 whole entry): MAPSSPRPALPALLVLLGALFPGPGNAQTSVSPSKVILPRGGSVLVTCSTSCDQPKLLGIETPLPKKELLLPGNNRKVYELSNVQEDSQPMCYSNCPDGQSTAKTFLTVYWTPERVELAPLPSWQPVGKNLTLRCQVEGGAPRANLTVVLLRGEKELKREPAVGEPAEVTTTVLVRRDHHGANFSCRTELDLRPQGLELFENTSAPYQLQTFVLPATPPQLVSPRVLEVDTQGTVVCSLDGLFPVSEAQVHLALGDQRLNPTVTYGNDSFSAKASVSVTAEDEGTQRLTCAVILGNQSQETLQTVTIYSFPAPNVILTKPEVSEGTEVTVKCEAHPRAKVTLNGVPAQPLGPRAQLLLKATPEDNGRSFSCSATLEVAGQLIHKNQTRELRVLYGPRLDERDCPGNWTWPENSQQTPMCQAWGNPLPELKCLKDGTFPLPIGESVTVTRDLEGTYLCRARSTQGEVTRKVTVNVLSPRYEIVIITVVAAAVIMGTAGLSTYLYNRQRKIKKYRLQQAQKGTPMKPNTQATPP
Intercellular adhesion molecule (ICAM-1), Integrin alpha-L/beta-2, sequence (P05107 whole entry): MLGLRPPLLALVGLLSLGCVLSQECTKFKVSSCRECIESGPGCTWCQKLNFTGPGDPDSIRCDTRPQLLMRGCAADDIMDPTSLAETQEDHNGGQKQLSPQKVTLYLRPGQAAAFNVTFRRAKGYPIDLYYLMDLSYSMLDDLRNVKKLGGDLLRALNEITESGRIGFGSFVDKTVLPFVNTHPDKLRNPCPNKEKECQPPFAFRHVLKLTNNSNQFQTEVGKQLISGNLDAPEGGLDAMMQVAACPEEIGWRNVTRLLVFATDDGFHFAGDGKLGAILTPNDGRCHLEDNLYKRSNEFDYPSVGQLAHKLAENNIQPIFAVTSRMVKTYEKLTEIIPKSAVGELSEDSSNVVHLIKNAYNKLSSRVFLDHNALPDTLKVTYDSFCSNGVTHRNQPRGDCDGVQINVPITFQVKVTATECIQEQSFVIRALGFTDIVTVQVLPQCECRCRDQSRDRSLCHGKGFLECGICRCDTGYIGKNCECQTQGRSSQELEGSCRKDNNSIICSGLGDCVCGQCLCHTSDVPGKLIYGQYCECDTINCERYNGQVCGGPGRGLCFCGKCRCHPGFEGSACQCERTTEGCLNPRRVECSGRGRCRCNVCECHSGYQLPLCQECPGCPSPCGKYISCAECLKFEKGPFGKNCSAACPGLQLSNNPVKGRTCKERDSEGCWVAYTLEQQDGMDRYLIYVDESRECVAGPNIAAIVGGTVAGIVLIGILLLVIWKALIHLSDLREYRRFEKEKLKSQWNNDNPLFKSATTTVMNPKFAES

| SMILES | IC50 [µM] |
| --- | --- |
| O=C(N[C@@H](Cc1c[nH]c2ccccc12)C(=O)O)c1ccccc1 | 127 |
| O=C(N[C@@H](Cc1c[nH]c2ccccc12)C(=O)O)C1CCNCC1 | > 1000 |
| O=C(N[C@@H](Cc1c[nH]c2ccccc12)C(=O)O)c1ccccc1O | > 500 |
| O=C(N[C@@H](Cc1c[nH]cn1)C(=O)O)c1c(F)cccc1Cl | 0.13 |
| O=C(N[C@@H](Cc1c[nH]c2ccccc12)C(=O)O)c1c(F)cccc1Br | 0.43 |
| O=C(N[C@@H](Cc1c[nH]c2ccccc12)C(=O)O)C1CCCNC1 (stereo partly drawn) | > 1000 |
| O=C(N[C@@H](Cc1c[nH]c2ccccc12)C(=O)O)c1ccccc1F | 7.4 |
| O=C(O)[C@H](Cc1c[nH]c2ccccc12)NC(=O)N1CCCCC1 | 380 |
| O=C(N[C@@H](Cc1c[nH]c2ccccc12)C(=O)O)c1cccc(Cl)c1Cl | 6.3 |
| NC(=O)C[C@H](NC(=O)c1c(Cl)cccc1Cl)C(=O)O | 0.17 |
| Nc1ccc(C(=O)N[C@@H](Cc2c[nH]c3ccccc23)C(=O)O)c(Cl)c1 | 2 |
| O=C(N[C@@H](Cc1c[nH]c2ccccc12)C(=O)O)c1c(F)cccc1F | 0.46 |
| O=C(N[C@@H](Cc1c[nH]c2ccccc12)C(=O)O)c1cc(Br)ccc1O | > 500 |
| O=C(N[C@@H](Cc1c[nH]c2ccccc12)C(=O)O)c1ccccc1I | 8.9 |
| Cc1ccc(C(=O)N[C@@H](Cc2c[nH]c3ccccc23)C(=O)O)cc1 | 129 |
| O=C(N[C@@H](Cc1c[nH]c2ccccc12)C(=O)O)c1cccnc1 | 112 |
| O=C(N[C@@H](Cc1c[nH]c2ccccc12)C(=O)O)c1cncc(Br)c1 | > 200 |
| O=C(N[C@@H](Cc1c[nH]c2ccccc12)C(=O)O)C1CCCCC1 | 61 |
| O=C(N[C@@H](Cc1c[nH]c2ccccc12)C(=O)O)c1c(F)cccc1Cl | 0.25 |
| O=C(N[C@@H](Cc1c[nH]c2ccccc12)C(=O)O)c1ccc(-c2ccccc2)cc1 | > 100 |
| O=C(N[C@@H](Cc1c[nH]c2ccccc12)C(=O)O)c1ccc(Cl)cc1Cl | 8.4 |

| SMILES | IC50 [µM] |
| --- | --- |
| O=C(N[C@@H](Cc1c[nH]c2ccccc12)C(=O)O)c1ccccc1-c1ccccc1 | > 100 |
| Cc1cccc(C(=O)N[C@@H](Cc2c[nH]c3ccccc23)C(=O)O)c1 | 295 |
| O=C(N[C@@H](Cc1c[nH]c2ccccc12)C(=O)O)c1ccc(F)cc1 | 136 |
| O=C(N[C@@H](Cc1c[nH]c2ccccc12)C(=O)O)c1ccc([N+](=O)[O-])cc1Cl | 5.2 |
| Cc1cccc(C)c1C(=O)N[C@@H](Cc1c[nH]c2ccccc12)C(=O)O | 1.1 |
| O=C(N[C@@H](Cc1c[nH]c2ccccc12)C(=O)O)c1cc(Br)ccc1Br | 24.3 |
| COc1ccc(C(=O)N[C@@H](Cc2c[nH]c3ccccc23)C(=O)O)cc1 | 178 |
| NC(=O)C[C@H](NC(=O)c1c(F)cccc1Cl)C(=O)O | 0.11 |
| O=C(N[C@@H](Cc1c[nH]c2ccccc12)C(=O)O)c1cnccc1Cl | 32.6 |
| O=C(N[C@@H](Cc1c[nH]c2ccccc12)C(=O)O)c1cccc(F)c1 | 148 |
| O=C(N[C@@H](Cc1c[nH]cn1)C(=O)O)c1c(F)cccc1F | 0.2 |
| NC(=O)C[C@H](NC(=O)c1c(F)cccc1F)C(=O)O | 0.23 |
| O=C(N[C@@H](Cc1c[nH]c2ccccc12)C(=O)O)c1ccc(Br)cc1 | 61 |
| O=C(N[C@@H](Cc1c[nH]c2ccccc12)C(=O)O)c1cccc(Br)c1 | > 100 |
| COc1cccc(C(=O)N[C@@H](Cc2c[nH]c3ccccc23)C(=O)O)c1 | 438 |
| O=C(N[C@@H](Cc1c[nH]c2ccccc12)C(=O)O)c1cccc(Cl)c1 | 295 |
| COc1ccccc1C(=O)N[C@@H](Cc1c[nH]c2ccccc12)C(=O)O | 225 |
| O=C(N[C@@H](Cc1c[nH]c2ccccc12)C(=O)O)c1cc(Br)ccc1Cl | 17.9 |
| COc1ccc(Br)c(C(=O)N[C@@H](Cc2c[nH]c3ccccc23)C(=O)O)c1 | 9 |
| O=C(N[C@@H](Cc1c[nH]c2ccccc12)C(=O)O)c1cccc(O)c1 | > 100 |
| O=C(N[C@@H](Cc1c[nH]c2ccccc12)C(=O)O)c1cccc(I)c1 | > 100 |

| SMILES | IC50 [µM] |
| --- | --- |
| Cc1cccc(Cl)c1C(=O)N[C@@H](Cc1c[nH]c2ccccc12)C(=O)O | 0.64 |
| O=C(N[C@@H](Cc1c[nH]c2ccccc12)C(=O)O)c1ccc[n+]([O-])c1 | > 1000 |
| CC1CCCCC1C(=O)N[C@@H](Cc1c[nH]c2ccccc12)C(=O)O (stereo partly drawn) | 28 |
| Cc1cccc(C)c1C(=O)N[C@@H](Cc1cnc[nH]1)C(=O)O | 1.77 |
| O=C(N[C@@H](Cc1c[nH]c2ccccc12)C(=O)O)c1ccccn1 | > 100 |
| Cc1ccccc1C(=O)N[C@@H](Cc1c[nH]c2ccccc12)C(=O)O | 4 |
| O=C(N[C@@H](Cc1c[nH]c2ccccc12)C(=O)O)c1cc(Cl)cc(Cl)c1 | 200 |
| O=C(N[C@@H](Cc1c[nH]c2ccccc12)C(=O)O)c1cc(F)cc(F)c1 | 89.7 |
| O=C(N[C@@H](Cc1c[nH]c2ccccc12)C(=O)O)c1ccncc1 | 92 |
| O=C(N[C@@H](Cc1c[nH]c2ccccc12)C(=O)O)c1cc(F)ccc1F | 11.5 |
| O=C(N[C@@H](Cc1c[nH]c2ccccc12)C(=O)O)c1ccc(O)cc1 | > 100 |
| O=C(N[C@@H](Cc1c[nH]c2ccccc12)C(=O)O)c1ccc(Cl)c(Cl)c1 | 170 |
| O=C(N[C@@H](Cc1cnc[nH]1)C(=O)O)c1c(Cl)cccc1Cl | 0.16 |
| O=C(N[C@@H](Cc1c[nH]c2ccccc12)C(=O)O)c1ccc(I)cc1 | 92 |
| O=C(N[C@@H](Cc1c[nH]c2ccccc12)C(=O)O)c1c(Cl)cccc1Cl | 0.6 |
| O=C(N[C@@H](Cc1c[nH]c2ccccc12)C(=O)O)c1cccc(F)c1F | 21.6 |
| O=C(N[C@@H](Cc1c[nH]c2ccccc12)C(=O)O)c1ccccc1Cl | 1.5 |
| O=C(N[C@@H](Cc1c[nH]c2ccccc12)C(=O)O)c1cc(Cl)ccc1Cl | 6.6 |
| O=C(N[C@@H](Cc1c[nH]c2ccccc12)C(=O)O)c1cccnc1Cl | 1.2 |
| O=C(N[C@@H](Cc1c[nH]c2ccccc12)C(=O)O)C1CCCCN1 (stereo partly drawn) (H-[ξPip]-Trp-OH) | > 1000 |
| O=C(N[C@@H](Cc1c[nH]c2ccccc12)C(=O)O)c1ccc(Cl)cc1 [BENZOTRIPT] | 169 |
